Literature values, collected in patent publication US20150164858A1, “COMBINATION COMPRISING PARTHENOLIDE FOR USE IN THE TREATMENT OF ALZHEIMER'S DISEASE AND OTHER NEURODEGENERATIVE DISORDERS” (King Abdullah University of Science and Technology, priority 2012, published 2015).

Experiments:
patients with AD = details: moderate to severe AD
TLR4 = TLR4 (Homo sapiens, UniProt O00206)
[1] = system: HEK293 cells stably expressing TLR4/MD-2/CD14

Chain of TLR4 (O00206 24-839): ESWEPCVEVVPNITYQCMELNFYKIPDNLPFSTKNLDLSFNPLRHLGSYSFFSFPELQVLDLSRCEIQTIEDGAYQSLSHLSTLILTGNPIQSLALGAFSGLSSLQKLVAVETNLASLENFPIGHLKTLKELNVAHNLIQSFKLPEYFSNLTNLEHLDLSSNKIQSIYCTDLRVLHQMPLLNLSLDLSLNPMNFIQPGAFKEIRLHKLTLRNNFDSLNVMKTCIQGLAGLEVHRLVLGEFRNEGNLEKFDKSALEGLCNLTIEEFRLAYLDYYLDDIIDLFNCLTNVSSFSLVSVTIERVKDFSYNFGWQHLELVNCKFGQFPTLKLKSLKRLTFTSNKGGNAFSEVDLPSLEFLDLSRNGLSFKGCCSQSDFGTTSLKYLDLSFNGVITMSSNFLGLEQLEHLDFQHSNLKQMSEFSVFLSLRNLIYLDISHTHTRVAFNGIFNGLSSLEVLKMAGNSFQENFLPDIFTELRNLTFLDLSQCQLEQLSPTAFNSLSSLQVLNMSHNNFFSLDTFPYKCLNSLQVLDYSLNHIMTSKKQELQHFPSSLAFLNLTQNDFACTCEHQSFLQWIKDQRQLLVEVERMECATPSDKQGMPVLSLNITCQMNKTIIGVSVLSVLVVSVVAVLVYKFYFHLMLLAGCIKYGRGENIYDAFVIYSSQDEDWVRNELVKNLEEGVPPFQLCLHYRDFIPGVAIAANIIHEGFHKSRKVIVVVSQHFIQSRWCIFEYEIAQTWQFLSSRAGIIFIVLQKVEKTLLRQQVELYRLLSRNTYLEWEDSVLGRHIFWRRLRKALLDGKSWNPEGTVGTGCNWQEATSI

Row | Compound | cognitive function (patients with AD) | TLR4 signaling (TLR4) | binding site in TLR4 (TLR4; intracellular domain of TLR4) | TIRAP-mediated activation of NF-κB [1] | TRAM-mediated activation of NF-κB and interferon-sensitive response element [1]
1 | CC12CC3CC(C)(C1)CC(N)(C3)C2 [Memantine] | improve cognitive function |  |  |  | 
2 | CCOC(=O)C1=CCCC[C@H]1S(=O)(=O)Nc1ccc(F)cc1Cl [Resatorvid] |  | suppress TLR4 signaling | binding directly to a specific amino acid Cys747 | inhibit | inhibit
